Values quoted from earlier work in patent publication US8263660B2, “Stable hyperbaric composition comprising prilocaine HCl, use of said new composition for intrathecal anaethesia, and method for manufacturing said composition” (Sintetica S.A., priority 2006, dated 2012).

Conditions: intrathecal application, literature reference (4)

## CCN(CC)CCOC(=O)c1ccc(N)cc1 [procaine]
  inadequacy rate: ≤ 17%
